≈ marks a conversion by molar mass, not a printed value. Where two headings read alike, the source gives them in different places.
Legend:
S. aureus ATCC 25923 = assay: broth microdilution antimicrobial assay (MIC, IC50); assay type: cell-based; details: Staphylococcus aureus, ATCC25923; for IC50: S. aureus ATCC 25923, 24 h, OD630, mean value with standard deviation, read-out: IC50 ATCC 25923; for MIC: broth microdilution, 24 h, range 100–0.19 µM
Text: (§1) Reference bacterial strains of Staphylococcus aureus (ATCC 25923) and Escherichia coli (ATCC 25922) were used in this study as Gram-positive and negative models, respectively. These reference strains were purchased from the American Type Culture Collection (ATCC, Manassas, VA, USA). Clinical isolates, identified by MALDI-TOF MS (Bruker Daltonik, GmbH, Bremen, Germany), were profiled for their antibiotic susceptibility by using the Vitek2 semiautomated system (bioMérieux, Craponne, France) and according to EUCAST (Version 12, 2022, http://www.eucast.org (accessed on 1 January 2022)). The bacterial cultures were routinely grown on 5% blood agar plates (Biolife Italiana S.r.l., Milan, Italy) and were freshly used in the antibacterial assays.
(§2) The minimum inhibitory concentrations (MICs) were determined using the microbroth dilution method in microtiter plates according to the Clinical and Laboratory Standards Institute (CLSI) guidelines. In short, microbial inocula were prepared at 0.5 McFarland in PBS and, subsequently, bacterial suspensions were diluted 1:200 in Mueller–Hinton broth (Sigma-Aldrich, St. Louis, MO, USA), while fungal inoculum was diluted 1:20 in RPMI-1640 medium (Gibco®, ThermoFisher Scientific Inc., Waltham, MA, USA), containing glucose 2%, 0.3% levo-glutamine buffered to pH 7.0 with 0.165 M 3-(N-morpholino)propanesulfonic acid (MOPS). A total of 100 µL of these microbial suspensions was introduced into a 96-well microplate and incubated with 100 µL of the compounds, two-fold serially diluted in the range of 100–0.19 µM. Positive controls (microbial suspensions in regular media), negative controls (only compounds), solvent controls (microbial suspensions incubated with DMSO dilutions), and the reference drug controls were included in the tests. The plate was incubated at 37 °C for 24 h, and subsequently the optical density at 630 nm (OD630nm) was spectrophotometrically measured. Experiments were performed in triplicate with three biological replicates. In addition to MIC, IC50 values were measured for the active compounds. The values, corresponding to the concentration of the compound giving rise to an inhibition of growth of 50%, were obtained by interpolation on dose–response curves generated by plotting the percentages of growth inhibition, relative to the positive control (set to 100% of growth), as a function of the tested concentrations (on a logarithm scale). Statistical analysis was carried out by using GraphPad Prism version 9.4.1 for Windows (GraphPad Software, San Diego, CA, USA, www.graphpad.com).

E. coli ATCC 25923 = assay: broth microdilution antimicrobial assay (MIC); assay type: cell-based; details: Escherichia coli, ATCC25923, 24 h, range 100–0.19 µM
[1] = tested on: clinical isolates of S. aureus (MRSA); assay: antibiotic susceptibility profiling of clinical isolates (Vitek2, EUCAST); assay type: cell-based, Staphylococcus aureus; details: for Antibiotic-resistance profile, MRSA 3: clinical isolate MRSA 3; for Antibiotic-resistance profile, MRSA 4: clinical isolate MRSA 4; for Antibiotic-resistance profile, MRSA 5: clinical isolate MRSA 5; for Antibiotic-resistance profile, MRSA 1: clinical isolate MRSA 1; for Antibiotic-resistance profile, MRSA 2: clinical isolate MRSA 2; as to all read-outs here: key: R = Resistant; S = Susceptible; I = Intermediate
Text: as §1

[2] = tested on: P. falciparum CQ-sensitive (CQ-S) D10 strain; assay: antiplasmodial drug susceptibility assay (pLDH), CQ-sensitive strain; assay type: cell-based; details: Plasmodium falciparum, read-out: IC50 D10 (CQ-S)
Method: (§3) P. falciparum cultures were carried out according to Trager and Jensen with slight modifications. The CQ-sensitive strain D10 and the CQ-resistant strain W2 were maintained at 5% hematocrit (human A-positive erythrocytes) in RPMI 1640 medium (EuroClone S.p.A, Milan, Italy) with the addition of 1% AlbuMax (Invitrogen, San Diego, California, USA), 0.01% hypoxanthine, 20 mM Hepes, and 2 mM glutamine at 37 °C in a standard gas mixture (1% O2, 5% CO2, and 94% N2). […] Drugs were placed in 96-well flat-bottomed microplates, and serial dilutions were made. Asynchronous cultures with parasitaemia of 1–1.5% and 1% final hematocrit were aliquoted into the plates and incubated for 72 h at 37 °C. Parasite growth was determined spectrophotometrically (OD650nm) by measuring the activity of the parasite lactate dehydrogenase (pLDH), as described in a modified version of Makler’s method in control- and drug-treated cultures. The antiplasmodial activity is expressed as 50% inhibitory concentrations (IC50); each IC50 value is the mean ± standard deviation of at least three separate experiments performed in duplicate.

[3] = tested on: P. falciparum CQ-resistant (CQ-R) W2 strain; assay: antiplasmodial drug susceptibility assay (pLDH), CQ-resistant strain; assay type: cell-based; details: Plasmodium falciparum, read-out: IC50 W2 (CQ-R)
Method: as §3

C. albicans ATCC 10231 = assay: broth microdilution antifungal assay (MIC); assay type: cell-based; details: Candida albicans, ATCC10231, 24 h, range 100–0.19 µM
Method: The reference strain of Candida albicans (ATCC 10231) was used in the present study and maintained on Sabouraud Dextrose Agar (Biolife Italiana S.r.l., Milan, Italy) before the antifungal assays.
as §2

[4] = cell viability and proliferation assay (CCK-8/WST8); assay type: cell-based; details: human, WS1 cells (human-derived fibroblasts, ATCC CRL-1502), mean value with standard deviation
Method: WS1 cells (ATCC CRL-1502) were selected as a model system to investigate the effect of PTZ-quinoline hybrid compounds on human-derived fibroblasts. Briefly, cells were cultured in DMEM-High glucose supplemented with 10% fetal bovine serum (FBS) (Carlo Erba Reagents, Milan, Italy), 100 U/mL penicillin, and 100 µg/mL streptomycin at 37 °C with 5% CO2. For experiments, cells were seeded into 96-well plates at 0.7 × 10^4 cells/well, and incubated at 37 °C for 24 h. […] Cell viability was assessed by a WST8-based assay according to the manufacturer’s instructions (CCK-8, Cell Counting Kit-8, Dojindo Molecular Technologies, Rockville, MD, USA). After 48 h of incubation, culture medium was removed from each well, the monolayer was washed with PBS, and 100 µL of fresh medium containing 10 µL of CCK-8 solution was added. Following a 2 h incubation at 37 °C, the OD450nm was read, and data were expressed as the percentage of cell viability relative to the untreated controls. The CC50 was obtained on the corresponding dose–response curves generated as previously reported for IC50 values. Experiments were carried out in triplicate in three biological replicates.

[5] = P. falciparum D10, 72 h, pLDH, mean value with standard deviation
[6] = P. falciparum W2, 72 h, pLDH, mean value with standard deviation

Compound | MIC (S. aureus ATCC 25923) [µM] | MIC (E. coli ATCC 25923) [µM] | Antibiotic-resistance profile, MRSA 3 [1] | Antibiotic-resistance profile, MRSA 4 [1] | Antibiotic-resistance profile, MRSA 5 [1] | MIC (C. albicans ATCC 10231) [µM] | CC50 at 48 h [4] [nM] | Antibiotic-resistance profile, MRSA 1 [1] | Antibiotic-resistance profile, MRSA 2 [1] | further results
CC1(C)S[C@@H]2[C@H](NC(=O)[C@H](N)c3ccccc3)C(=O)N2[C@H]1C(=O)O [AMP, ampicillin, reference compound] | 4.2 (≈ 1.47 µg/mL) | 67.3 (≈ 23.5 µg/mL) |  |  |  |  |  |  |  | IC50 (S. aureus ATCC 25923): 2590 ± 130 nM
CCC[C@@H]1C[C@@H](C(=O)N[C@@H]([C@H]2O[C@H](SC)[C@H](O)[C@@H](O)[C@H]2O)[C@H](C)Cl)N(C)C1 [CM, Clindamicyn] |  |  | R | S | S |  |  |  |  | 
CCN(CC)CCCC(C)Nc1ccnc2cc(Cl)ccc12 (centres unmarked) [CQ, chloroquine, reference compound] |  |  |  |  |  |  |  |  |  | IC50 ([2]; D10, 72 h): 25 ± 7 nM; IC50 ([3]; W2, 72 h): 420 ± 103 nM
Clc1ccc2c(N3CCN(CCCN4c5ccccc5Sc5ccccc54)CC3)ccnc2c1 [Compound 1, 10-(3-(4-(7-chloroquinolin-4-yl)piperazin-1-yl)propyl)-10H-phenothiazine] | > 100 | > 100 |  |  |  | > 100 | > 100000 |  |  | IC50 [2, 5]: 2520 ± 840 nM; IC50 [3, 6]: 2320 ± 1050 nM
Clc1ccc2c(N3CCN(CCCCN4c5ccccc5Sc5ccccc54)CC3)ccnc2c1 [Compound 2, 10-(4-(4-(7-chloroquinolin-4-yl)piperazin-1-yl)butyl)-10H-phenothiazine] | > 100 | > 100 |  |  |  | > 100 | > 100000 |  |  | 
Clc1ccc2c(N3CCN(CCCCCN4c5ccccc5Sc5ccccc54)CC3)ccnc2c1 [Compound 3, 10-(5-(4-(7-chloroquinolin-4-yl)piperazin-1-yl)pentyl)-10H-phenothiazine] | > 100 | > 100 |  |  |  | > 100 | > 100000 |  |  | IC50 [2, 5]: 2340 ± 12 nM; IC50 [3, 6]: 990 ± 245 nM
Clc1ccc2c(NCCCCCn3cc(CN4c5ccccc5Sc5ccccc54)nn3)ccnc2c1 [Compound 6a, N-(5-(4-((10H-phenothiazin-10-yl)methyl)-1H-1,2,3-triazol-1-yl)pentyl)-7-chloroquinolin-4-amine] | > 100 | > 100 |  |  |  | > 100 | 48300 ± 900 |  |  | IC50 [2, 5]: 326 ± 120 nM; IC50 [3, 6]: 377 ± 66 nM
Clc1ccc2c(c1)N(Cc1cn(CCCCCNc3ccnc4cc(Cl)ccc34)nn1)c1ccccc1S2 [Compound 6b, 7-chloro-N-(5-(4-((2-chloro-10H-phenothiazin-10-yl)methyl)-1H-1,2,3-triazol-1-yl)pentyl)quinolin-4-amine] | 50 (≈ 28.1 µg/mL) | > 100 |  |  |  | > 100 | 34300 ± 520 |  |  | IC50 [2, 5]: 602 ± 314 nM; IC50 (S. aureus ATCC 25923): 25000 ± 1760 nM; IC50 [3, 6]: 184 ± 93 nM
Clc1ccc2c(-n3cc(CN4c5ccccc5Sc5ccccc54)nn3)ccnc2c1 [Compound 7, 10-((1-(7-chloroquinolin-4-yl)-1H-1,2,3-triazol-4-yl)methyl)-10H-phenothiazine] | > 100 | > 100 |  |  |  | > 100 | > 100000 |  |  | 
CC[C@H]1OC(=O)[C@H](C)[C@@H](O[C@H]2C[C@@](C)(OC)[C@@H](O)[C@H](C)O2)[C@H](C)[C@@H](O[C@@H]2O[C@H](C)C[C@H](N(C)C)[C@H]2O)[C@](C)(O)C[C@@H](C)C(=O)[C@H](C)[C@@H](O)[C@]1(C)O [E, Erythromycin] |  |  | R | S | S |  |  |  |  | 
OC(Cn1cncn1)(Cn1cncn1)c1ccc(F)cc1F [FLC, Fluconazole, reference compound] |  |  |  |  |  | 0.82 (≈ 0.251 µg/mL) |  |  |  | 
CNC(C)C1CCC(N)C(OC2C(N)CC(N)C(OC3OCC(C)(O)C(NC)C3O)C2O)O1 (centres unmarked) [GEN, gentamicin] | 6.6 (≈ 3.15 µg/mL) | 1.03 (≈ 0.492 µg/mL) | S | S | S |  |  | S | S | IC50 (S. aureus ATCC 25923): 4000 ± 50 nM
C[C@H]1COc2c(N3CCN(C)CC3)c(F)cc3c(=O)c(C(=O)O)cn1c23 [LVX, Levofloxacin] |  |  | R | R | R |  |  | R | R | 
Cc1onc(-c2ccccc2)c1C(=O)N[C@@H]1C(=O)N2[C@@H]1SC(C)(C)[C@@H]2C(=O)O [OX, Oxacillin] |  |  | R | R | R |  |  | R | R | 
CN(C)[C@@H]1C(O)=C(C(N)=O)C(=O)[C@@]2(O)C(O)=C3C(=O)c4c(O)cccc4[C@@](C)(O)[C@H]3C[C@@H]12 [TE, Tetracycline] |  |  | S | S | S |  |  | S | S | 
CN[C@H](CC(C)C)C(=O)N[C@H]1C(=O)N[C@@H](CC(N)=O)C(=O)N[C@H]2C(=O)N[C@H]3C(=O)N[C@H](C(=O)N[C@H](C(=O)O)c4cc(O)cc(O)c4-c4cc3ccc4O)[C@H](O)c3ccc(c(Cl)c3)Oc3cc2cc(c3O[C@@H]2O[C@H](CO)[C@@H](O)[C@H](O)[C@H]2O[C@H]2C[C@](C)(N)[C@H](O)[C@H](C)O2)Oc2ccc(cc2Cl)[C@H]1O [VA, Vancomycin] |  |  | S | S | S |  |  | S | S | 
Penicillin |  |  | R | R | R |  |  | R | R | 
Teicoplanin [TEC] |  |  | S | S | S |  |  | S | S | 

From publication PMC12561106, “STOP Strategy to Inhibit P. falciparum and S. aureus Growth: Molecular Mechanism Studies on Purposely Designed Hybrids” (Antibiotics, 2025)
